Test results published in PubChem BioAssay (NCI).
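These data come from cells grown in 96-well plates and exposed to compound for 48 hours at five concentrations. GI50 = concentration required for 50% inhibition of growth. TGI: total growth inhibition.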

Tests used:
Experiment in all cases: DTP human tumour cell line panel, 48 h
[1] = tested on: TK-10 renal
[2] = tested on: IGROV1 ovarian
[3] = tested on: NCI-H522 lung
[4] = tested on: HCC-2998 colon
[5] = tested on: SK-MEL-2 melanoma
[6] = tested on: NCI-H226 lung
[7] = tested on: NCI-H460 lung
[8] = tested on: HCT-116 colon
[9] = tested on: HT29 colon
[10] = tested on: MDA-MB-435

SMILES	TGI [1] [µM]	TGI [2] [µM]	TGI [3] [µM]	TGI [4] [µM]	TGI [5] [µM]	TGI [6] [µM]	TGI [7] [µM]	TGI [8] [µM]	TGI [9] [µM]	TGI [10] [µM]	GI50 [1] [µM]	GI50 [2] [µM]	GI50 [3] [µM]	GI50 [4] [µM]	GI50 [5] [µM]	GI50 [7] [µM]	GI50 [9] [µM]	GI50 [8] [µM]	GI50 [6] [µM]	GI50 [10] [µM]
Cc1ccccc1NC(=O)C(=O)CC(=O)C1CCOC1=O (stereo unspecified)	> 100	> 100	> 100	> 100	> 100	> 100	> 100	> 100	–	–	–	–	–	–	–	–	–	–	–	–
CCOC(=O)C1=C(C)N(NC(=O)OC)C2(N)N(NC(=O)OC)C(C)=C(C(=O)OCC)C12C#N (stereo unspecified)	–	> 100	> 100	> 100	> 100	> 100	> 100	> 100	> 100	–	–	–	–	–	–	–	–	–	–	–
CCOC(=O)C(O)Cc1cnc2ccccc2n1 (stereo unspecified)	> 100	> 100	> 100	> 100	> 100	–	> 100	> 100	> 100	> 100	–	–	–	–	–	–	–	–	–	–
Cc1cc(Cl)cc2c1NC(=O)C2(O)CC(=O)c1ccc(F)cc1 (stereo unspecified)	> 100	> 100	–	> 100	> 100	> 100	> 100	> 100	> 100	–	–	–	–	–	–	–	–	–	–	–
Cc1cccc(Cl)c1NC(=O)c1cccc([N+](=O)[O-])c1O	–	> 100	50.4	> 100	–	95.9	> 100	> 100	> 100	–	–	–	–	–	–	–	–	–	–	–
OCCSCC/C(=N\N=C(/CCSCCO)c1ccccc1)c1ccccc1	> 100	> 100	–	> 100	> 100	> 100	> 100	–	> 100	–	–	–	–	–	–	–	–	–	–	–
CCOC(=O)N1CCc2cc(OC)c(OC)cc2/C1=C/c1ccc(OC)c(OC)c1	> 100	> 100	> 100	> 100	> 100	> 100	–	> 100	98.4	–	–	–	–	–	–	–	–	–	–	–
Cc1ccc(S(=O)(=O)N[C@@H](Cc2ccccc2)C(=O)CCl)cc1	41.7	42	37.1	21.8	35.8	–	> 100	> 100	> 100	30.7	19.4	8.25	11.5	1.03	15	21.8	24	12.9	–	–
O=C([CH-]C(=O)c1ccccc1)c1ccccc1.[CH3-].[CH3-].[CH3-].[Sn+4]	84.9	> 100	24.2	47.5	56.9	65.7	> 100	19.1	60.3	–	31.7	33.1	11.8	18.7	7.68	6.89	19.2	5.95	6.62	–
Oc1cc2c(cc1C(c1ccc3c(c1)OCO3)N1CCN(C(c3ccc4c(c3)OCO4)c3cc4c(cc3O)OCO4)CC1)OCO2 (stereo unspecified)	43.8	35.7	33.5	–	41.6	29.6	> 100	29.1	18.8	35	–	–	–	–	–	–	–	–	–	–
C=C(CN(C)Cc1ccccc1)c1ccc(C(=O)Nc2ccccc2N)cc1	17.8	9.35	–	–	40.5	–	> 50	21.9	–	5.7	7.12	0.606	–	–	8.73	19.9	–	8.6	–	1.42
O=C1[C@@H]2C(c3ccncc3)=NO[C@@H]2C(=O)N1c1ccc(Cc2ccc(N3C(=O)[C@H]4C(c5ccncc5)=NO[C@H]4C3=O)cc2)cc1	> 100	> 100	–	> 100	> 100	> 100	> 100	–	> 100	–	–	–	–	–	–	–	–	–	–	–
C/C(CC(=O)Nc1ccccc1)=N\NC(N)=S	> 100	> 100	> 100	> 100	> 100	> 100	> 100	> 100	> 100	–	–	–	–	–	–	–	–	–	–	–
CSC(=NC#N)S/C=C/C(=O)c1cccc2ccccc12	45.4	48.1	81.4	> 100	> 100	–	> 100	> 100	> 100	85.5	22.2	21	28.5	63	34.3	37.8	53.9	40	–	24.5
CCCCCCCC(=O)NS(=O)(=O)c1ccccc1	> 100	> 100	> 100	> 100	> 100	–	> 100	> 100	> 100	> 100	–	–	–	–	–	–	–	–	–	–
COC(=O)[C@@H]1[C@H](O)[C@H](C)[C@H](O)[C@H](C)/C=C\C=C(C)C(=O)Nc2c(C)c(OC(C)=O)c3c(c2O)C(=O)C(C)=C2OCOC(=C23)C(C)=C[C@@](C)(O)[C@H](O)[C@@H](C)[C@H]1OC(C)=O	–	> 100	–	–	–	> 100	–	48.6	> 100	–	–	–	–	–	–	–	–	–	–	–
CC1(C)Cc2nnsc2C2=C1C(=O)CCS2	> 100	> 100	> 100	> 100	> 100	–	> 100	–	> 100	–	–	–	–	–	–	–	–	–	–	–
Cc1cccc(C)c1NC(=O)CCCC(=O)C(C#N)c1ccc(Cl)cc1 (stereo unspecified)	> 100	> 100	> 100	> 100	> 100	> 100	> 100	> 100	> 100	–	–	–	–	–	–	–	–	–	–	–
NC1=NCC(c2ccccn2)C1c1ccc(F)cc1 (stereo unspecified)	> 100	> 100	> 100	> 100	> 100	> 100	> 100	> 100	> 100	–	–	–	–	–	–	–	–	–	–	–
O=[N+]([O-])c1ccc2nc3ccscc-3c2c1	> 100	> 100	59.9	34.1	77.7	> 100	49.4	–	> 100	–	–	–	–	–	–	–	–	–	–	–
COc1ccc(C2N3CCCCC3[C@@H]3c4[nH]c5ccccc5c4CCN23)c(OC)c1 (stereo partly specified)	69.1	> 100	–	–	34.7	–	50.2	38	32.6	–	–	–	–	–	–	–	–	–	–	–
Cc1cccc2cc3cccc(C(=O)NCCN(C)C)c3nc12	7.88	> 38.8	1.19	1.48	1.85	0.343	0.312	1.54	3.94	–	–	–	–	–	–	–	–	–	–	–
